Experimental findings from PubChem BioAssay AID179 (DTP/NCI, 2004) are described below.

The term EC50 denotes the concentration at which the effect is half-maximal. By IC50 is commonly meant the concentration at which inhibition is half-maximal.

In this assay the test system is CEM cells HIV-1 protection, formazan growth assay. The experiment in a line: NCI AIDS Antiviral Assay. Particulars: for IC50: measured here: growth of uninfected CEM cells. The method, boiled down: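 Screen of anti-HIV-1 activity in human CEM cells using a formazan-based growth measurement at five drug concentrations. Hits with 50% or greater protection were repeated, and confirmation required reproducible complete protection.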

Where “and” joins values, the source holds several entries; their conditions need not be identical. Identical values can stand only once. Calls of active or inactive are those of the source.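 How the source made its calls: active means compounds giving half or more protection of infected cells from virus-caused growth loss, again on retest; inactive means the rest.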

Consider `Cn1c2ccccc2c2nc3ccccc3nc21`, for which the EC50 is greater than 22.4 µM and the IC50 was greater than 22.4 µM.

For `CC1(Br)C(=O)NC(=O)N([C@H]2C[C@H](O)[C@@H](CO)O2)C1N=[N+]=[N-]` (some centres not stated), the EC50 was 145 µM and the IC50 is greater than 200 µM.

In the case of `CN(C)C(=S)/N=C1\SC(=Nc2ccccc2)C(=Nc2ccccc2)N1c1ccc([N+](=O)[O-])cc1`, the EC50 was greater than 200 µM and the IC50 was found to be 138 µM.

Regarding `CN1C(=O)Nc2ncn(C)c2S1(=O)=O`, the EC50 was greater than 603 µM and the IC50 is greater than 603 µM.

Take `Cc1[nH]c2c(ccc3c2ccc2c(=O)c(Cl)c(C)[nH]c23)c(=O)c1Cl`: the EC50 was greater than 200 µM and the 50% inhibitory concentration (IC50) is greater than 200 µM.

Regarding `O=C1OC2C=CC1C1C(=O)OC(=O)C21` (configuration not stated), the EC50 is greater than 200 µM and the IC50 was greater than 200 µM.

`CC1(C)OP(=O)(O)C=C1[Se]c1ccccc1`: the EC50 is greater than 324 µM and the IC50 was greater than 324 µM.

Consider `CN(C)/C=C(\C(=O)c1ccccc1)n1nc(-c2ccccc2)cc1-c1ccccc1`, for which the EC50 was greater than 200 µM and the IC50 came out at 87.1 µM.

As for `O=C1c2ccccc2Sc2ccccc2N1C(=O)C1CC1`, the EC50 is 39.8 µM and the IC50 amounted to 55 µM.

Consider `COc1ccc(C2C(C#N)=C(S)N(C3OC(COC(C)=O)C(OC(C)=O)C(OC(C)=O)C3OC(C)=O)C(c3ccccc3)=C2C(C)=O)cc1` (configuration not stated), for which the EC50 is greater than 200 µM and the IC50 amounted to 25.1 µM.

Regarding `CSC1=Nc2ccccc2N=C(c2ccccc2)C1`, the EC50 was greater than 26.9 µM and the half-maximal inhibitory concentration (IC50) was greater than 26.9 µM.

With `Cc1ccc(C)n1-c1ccccc1C1C=CN(C(=O)OC(C)(C)C)C=C1`, the EC50 was greater than 200 µM and the IC50 came to 30.2 µM.

Consider `O=c1oc2c3ccccc3c3ccccc3c2c2oc3c4ccccc4c4ccccc4c3c12`, for which the EC50 is 0.0209 µM and the IC50 stood at 0.955 µM.

Regarding `COC1/C=C\OC2(C)Oc3c(C)c(O)c4c(c3C2=O)C(=O)C=C(NC(=O)C(C)=C/C=C\C(C)C(O)C(C)C2OC(C)(C)OC(C1C)C2C)C4=O` (configuration not stated), the EC50 is greater than 19.5 µM and the IC50 was determined as 2.4 µM.

Consider `COc1ccc(/C=N/n2c(=O)[nH]c3ccccc3c2=O)cc1`, for which the EC50 is greater than 200 µM and the IC50 was greater than 200 µM.

With `COCN(COC)c1nc(CCC(Br)(Br)Br)nc(N(COC)COC)n1`, the EC50 was greater than 83.2 µM and the IC50 came out at 37.2 µM.

On to `CCc1nc(N)c2nc(-c3cccs3)oc2n1`, for which the EC50 is greater than 200 µM and the IC50 was 182 µM.

As for `CCSc1nc(=S)n(-c2ccccc2)c(C)c1C(C)=O`, the EC50 was greater than 200 µM and the IC50 is greater than 200 µM.

With `COC(OC)/C(C)=N/NC1=Nc2ccc(Cl)cc2C(c2ccccc2Cl)=NC1`, the EC50 was greater than 12.3 µM and the IC50 is greater than 12.3 µM.

Turning to `O=S1c2ccccc2-c2ccccc21`, the EC50 is greater than 447 µM and the IC50 was greater than 447 µM.

Turning to `COc1ccc(CC2=NCCc3cc(OC)c(OC)cc32)cc1Br`, the EC50 was greater than 240 µM and the IC50 worked out at 3.47 µM.

Take `O=C1CN(C=C(C(=O)c2ccccc2)C(=O)c2ccccc2)C(=S)N1`: the outcome was inactive.

`Cn1c2ccccc2c2n[nH]c(=S)nc21`: the EC50 is 55 µM and the IC50 was greater than 200 µM.

On to `c1ccc(P(CCP(CCP(c2ccccc2)c2ccccc2)c2ccccc2)CCP(c2ccccc2)c2ccccc2)cc1` (configuration not stated), for which the EC50 is greater than 10.7 µM and the concentration for half-maximal inhibition (IC50) was greater than 10.7 µM.

With `Cc1cc(-c2ccccc2)[s+]s1`, the EC50 was greater than 200 µM; the 50% inhibitory concentration (IC50) is 89.1 µM and 174 µM.

`CCc1nc2ccccn2n1`: the EC50 was greater than 200 µM and the IC50 is greater than 200 µM.

Turning to `CC1(C(=O)Nc2ccc3cc4ccccc4cc3c2)CC2(C)CC(C)(C1)C(O)NC2=O` (configuration not stated), the result was inactive.

`CCC1(O)C(=O)Nc2ccc(OC)cc2C1=O` (configuration not stated): the outcome was inactive.

`Cc1cc2c(=O)cc(-c3ccc(O)cc3)oc2c(C(=O)O)c1C`: the outcome was inactive.

As to `c1cc2cc(c1)CN1CCNCCN(CCNCC1)Cc1cccc(c1)CN1CCNCCN(CCNCC1)C2`, the EC50 was greater than 50.1 µM and the concentration for half-maximal inhibition (IC50) was greater than 50.1 µM.

For `CCC1(O)CC2CC(=O)OC2C1O` (configuration not stated), the EC50 is greater than 200 µM and the IC50 was greater than 200 µM.

On to `COc1cc(O)c2cc1Oc1ccc(cc1)CC1c3cc(c(OC)cc3CCN1C)Oc1c(OC)c(OC)c(OC)c3c1[C@H](C2)N(C)CC3` (some centres not stated), for which the outcome was inactive.

With `O=S(=O)(O)c1cc(O)c2c(O)cc(S(=O)(=O)O)cc2c1`, the EC50 is 347 µM and the IC50 came out at 550 µM.

With `N#CC(C#N)=CN1C(=O)CNC1=S`, the EC50 is greater than 200 µM and the IC50 was greater than 200 µM.

Take `O=C(O)[C@@H](NS(=O)(=O)c1ccc([N+](=O)[O-])cc1)c1ccccc1`: the outcome was inactive.

Consider `NC(=N\N=C/c1ccc(Cl)cc1Cl)/C(N)=N\N=C/c1ccc(Cl)cc1Cl`, for which the result was inactive.

Take `CC[C@@H](CCCCC1CC[C@H]2CC(=O)C[C@@H]12)OC` (some centres not stated): the EC50 was greater than 200 µM and the IC50 came to 102 µM.

As for `CC(C#N)Nc1ccc(Oc2ccc(C(C)(C)c3ccc(Oc4ccc(NC(C)C#N)cc4)cc3)cc2)cc1` (configuration not stated), the EC50 is greater than 200 µM and the IC50 stood at 13.5 µM.

Turning to `COC(=O)[C@@]1(C(C)CC(=O)O)CCCCC1=O` (some centres not stated), the EC50 was greater than 1020 µM and the half-inhibitory concentration (IC50) was 214 µM.

Turning to `Cc1ccc(C)c(C2=C/C(=C/c3ccc(N(CCC#N)CCC#N)cc3)C(=O)O2)c1`, the EC50 was greater than 9.55 µM and the IC50 was greater than 9.55 µM.

For `Cc1cc2c(cc1C)NC(=O)CC(c1ccccc1)=N2`, the EC50 is greater than 200 µM and the half-maximal inhibitory concentration (IC50) is greater than 200 µM.

Turning to `N=C(N)n1[nH]c2c(c1=O)CCCC2`, the EC50 was greater than 200 µM and the IC50 is greater than 200 µM.

As for `CC1(C)C2CCC1(C)C(NC(=O)CCN1CCOCC1)C2` (configuration not stated), the EC50 was greater than 851 µM and the IC50 came to 537 µM.

As to `C=C(C)CS(=O)(=O)O`, the EC50 is greater than 200 µM and the IC50 was greater than 200 µM.

For the compound `COc1cc2oc(-c3ccc(O)cc3)c(OC3OC(C)C(O)C(O)C3O)c(=O)c2c(O)c1OC` (configuration not stated), the outcome was inactive.

As to `O=C1C2C=CC(n3[nH]c(=O)n(Cc4ccccc4)c3=O)CC2C(=O)N1c1ccc(Br)cc1` (configuration not stated), the EC50 is greater than 501 µM and the IC50 was determined as 135 µM.

With `OC/C=C/c1ccc(O)c(O)c1`, the result was inactive.

For `COc1ccc(CCN2CCC(C#N)(c3ccc(OC)c(OC)c3)CC2)cc1OC`, the EC50 is greater than 57.5 µM and the IC50 is greater than 57.5 µM.

As to `CC(=O)O[C@H]1[C@@H](OC2CCCC2(c2ccccc2)c2ccccc2)O[N+]([O-])=C[C@@]12COCc1cc3c(cc12)OCO3` (some centres not stated), the EC50 was greater than 200 µM and the IC50 was determined as 11.7 µM.

For the compound `NC(=S)N/N=C1\CC(c2ccccc2)Nc2ccccc21` (configuration not stated), the result was inactive.

Turning to `COC(=O)C1(Cc2ccc3c(c2)CCC3)Cc2ccc3c(c2C1O)CCC3` (configuration not stated), the EC50 is greater than 200 µM and the IC50 was 12.3 µM.

`O=C1NC(=O)C(=Cc2ccc(F)cc2)C(=O)N1`: the EC50 was greater than 112 µM and the IC50 is greater than 112 µM.

`CC(C)CC(N)CO` (configuration not stated): the EC50 was greater than 200 µM and the IC50 was greater than 200 µM.

With `O=C1NC(O)c2c(F)cccc2O1` (configuration not stated), the EC50 was greater than 200 µM and the IC50 amounted to 132 µM.

With `c1ccc(OCC[P+](c2ccccc2)(c2ccccc2)c2ccccc2)cc1`, the EC50 was greater than 200 µM and the IC50 is 0.501 µM.

For the compound `Cn1c(=O)cc(CC#N)c2ccccc21`, the EC50 is greater than 200 µM and the IC50 was greater than 200 µM.

As for `CCCC1(N)CC(OC)OC(C)C1O` (configuration not stated), the EC50 was greater than 200 µM and the IC50 is greater than 200 µM.

In the case of `OC1(c2cccc(Cl)c2)C2=NCCCN2c2ccccc21` (configuration not stated), the result was inactive.

Take `CC1(C)CC(=O)C2=C(C1)Nc1ccccc1NC2c1ccc([N+](=O)[O-])cc1` (configuration not stated): the EC50 was greater than 200 µM and the IC50 stood at 29.5 µM.

For `c1ccc(C2=C(c3ccccc3)/N=N/C(c3ccccc3)=C(c3ccccc3)\N=N\2)cc1`, the EC50 was greater than 200 µM and the IC50 was greater than 200 µM.

With `Nn1c(=O)[nH]c2ncn(Cc3ccccc3)c2c1=O`, the EC50 was greater than 200 µM and the concentration for half-maximal inhibition (IC50) is greater than 200 µM.

In the case of `COc1cc(C(=O)O)ccc1O`, the EC50 was greater than 200 µM and the concentration for half-maximal inhibition (IC50) was greater than 200 µM.

Take `O=C1OC2(C(F)(F)F)Oc3ccccc3CN2C12CCCCC2` (configuration not stated): the EC50 was greater than 200 µM and the IC50 came to 115 µM.

For `COc1ccc(-n2c(SC(CN3CCOCC3)CN3CCCC3=O)nc3ccccc3c2=O)cc1` (configuration not stated), the EC50 was greater than 200 µM and the IC50 is 56.2 µM.

Consider `COc1ccc(/C(C#N)=C\c2ccc(N(C)C)cc2)cc1`, for which the EC50 was greater than 100 µM and the IC50 is 1.23 µM.

As for `C=CCN=C([S-])Nc1cccc(C(=O)O)c1.[Au+].[Na+]`, the result was inactive.

`COC(=N)/C(C#N)=N/C1OCC(O)C(O)C1O` (configuration not stated): the outcome was inactive.

As for `CC(CC[C@@]1(C)C(=O)CCC2O[C@]21C)[C@H]1C[C@@H](c2ccoc2)OC1=O` (some centres not stated), the EC50 is greater than 200 µM and the IC50 was found to be 34.7 µM.

With `O=c1[nH]nc2ccccc2c1Cl`, the EC50 is greater than 39.8 µM and the IC50 amounted to 6.76 µM.

`OCCN1CCN(C2=Nc3cccnc3Nc3cscc32)CC1`: the EC50 is greater than 200 µM and the IC50 was greater than 200 µM.

For the compound `O=C(Cn1c(=O)oc2ccc(C(=O)c3ccccc3Cl)cc21)c1ccc([N+](=O)[O-])cc1`, the EC50 was greater than 200 µM and the IC50 turned out to be 17 µM.

For the compound `O=C(O)C(=Cc1ccc(-c2ccc([N+](=O)[O-])cc2)o1)C(=O)O`, the EC50 is greater than 200 µM and the IC50 was greater than 200 µM.

`Cc1ncc(CC#N)c2c1OC(C)(C)OC2`: the EC50 is greater than 1150 µM and the IC50 is greater than 1150 µM.

`CCc1ccc(/C(C#N)=C/c2cccc3ccccc23)cc1`: the EC50 was greater than 200 µM and the IC50 amounted to 26.9 µM.

Regarding `Cc1ccc([N+](=O)[O-])cc1NC(=O)C(=O)Cc1cc(=O)oc2cc(O)ccc12`, the EC50 is greater than 468 µM and the IC50 is 363 µM.
